Legend:
[1] = oral; cited from earlier work
[2] = Vasodilators studied for increasing the rate of delivery of cannabinoids to a desired site of action; conditions: vasodilator in cannabinoid formulation
From the text: Various vasodilators have been studied that have the desired effect of increasing the rate of delivery of cannabinoids to a desired site of action. […] The classes of vasodilators that may be substituted for the MSM of the present invention either in a preferred combination or in isolation. These classes include: • Alpha-adrenoceptor antagonists (alpha-blockers) • Angiotensin converting enzyme (ACE) inhibitors • Angiotensin receptor blockers (ARBs) • Beta2-adrenoceptor agonists (β2-agonists) • Calcium-channel blockers (CCBs) • Centrally acting sympatholytics • Direct acting vasodilators • Endothelin receptor antagonists • Ganglionic blockers • Nitrodilators • Phosphodiesterase inhibitors • Potassium-channel openers • Renin inhibitors

methylsulfonylmethane [MSM]
safe dose when taken orally [1]: up to 2 gm/kg of body weight per day | increasing the rate of delivery of cannabinoids to a desired site of action [2]: sufficiently effective

— patent publication US20170348277A1, “CANNABINOID FORMULATION INCLUDING A V[…] OCULAR DELIVERY OF THE SAME” (priority 2017, published 2017)
